# Patent US8765728B2, “[1,5]-diazocin derivatives” (MelliTech, priority 2009, dated 2014)
# Test system: Min6 cell
# Assay: Insulin secretion response of beta cell line to formula I compounds (insulin ELISA)
# Assay type: cell-based
# Details: rank according to % increase versus control at most effective dose
# Description: The secretory responses of beta cell lines to glucose were tested as described in Merglen et al. Endocrinology, (2004) 145(2):667-78.
# Briefly, after incubation with compounds from formula I or control vehicle, cells were maintained for 2 hours in glucose-free culture medium. The cells were then washed twice and preincubated for 30 minutes at 37° C. in glucose-free Krebs-Ringer bicarbonate HEPES buffer (KRBH: 135 mM NaCl, 3.6 mM KCl, 5 mM NaHCO3, 0.5 mM NaH2PO4, 0.5 mM MgCl2, 1.5 mM CaCl2, and 10 mM HEPES, pH 7.4). BSA (0.1%) was added as an insulin carrier. Cells were subsequently washed with glucose-free KRBH and then incubated for 30 minutes at 37° C. in KRBH containing different concentrations of glucose. The reaction was stopped by placing the plates on ice; supernatants were collected to determine insulin secretion and cells were used for intracellular insulin content following acid-ethanol extraction. Insulin was measured by ELISA (Linco) according to the manufacturer's instructions.
row,Molecule,Insulin secretion (Min6 cell) Range 1 to 5
1,"5-[3-(allyloxy)-2-hydroxypropyl]-9-ethyl-6,7,9,10-tetrahydro[1,3]dioxolo[4,5-i][1,5]benzodiazocin-8(5H)-one [Compound 164]",1 (1: 90-110% of control)
2,"5-benzyl-1-(isoxazole-5-carbonyl)-2,3,5,6-tetrahydrobenzo[b][1,5]diazocin-4(1H)-one [Compound 157]",1 (1: 90-110% of control)
3,"9-ethyl-5-(2-hydroxy-3-phenylpropyl)-6,7,9,10-tetrahydro[1,3]dioxolo[4,5-i][1,5]benzodiazocin-8(5H)-one [Compound 165]",1 (1: 90-110% of control)
4,"COc1ccc2c(c1)CN(C1CC1)C(=O)CCN2 [Compound 1, 5-cyclopropyl-8-methoxy-2,3,5,6-tetrahydrobenzo[b][1,5]diazocin-4(1H)-one]",2 (2: 110-120% of control)
5,"COc1ccc2c(c1)CN(C1CC1)C(=O)CCN2CC(O)COc1ccccc1 (stereo not shown) [Compound 2, 5-cyclopropyl-1-(2-hydroxy-3-phenoxypropyl)-8-methoxy-2,3,5,6-tetrahydrobenzo[b][1,5]diazocin-4(1H)-one]",3 (3: 120-140% of control)
6,"COc1ccc2c(c1)CN(C1CC1)C(=O)CCN2CCc1ccc(Cl)cc1 [Compound 3, 1-(4-chlorophenethyl)-5-cyclopropyl-8-methoxy-2,3,5,6-tetrahydrobenzo[b][1,5]diazocin-4(1H)-one]",1 (1: 90-110% of control)
7,"COc1ccc2c(c1)CN(C1CC1)C(=O)CCN2C(=O)c1cc(C)on1 [Compound 4, 5-cyclopropyl-8-methoxy-1-(5-methylisoxazole-3-carbonyl)-2,3,5,6-tetrahydrobenzo[b][1,5]diazocin-4(1H)-one]",2 (2: 110-120% of control)
8,"COc1ccc2c(c1)CN(C1CC1)C(=O)CCN2CC(=O)c1ccc(F)cc1 [Compound 5, 5-cyclopropyl-1-(2-(4-fluorophenyl)-2-oxoethyl)-8-methoxy-2,3,5,6-tetrahydrobenzo[b][1,5]diazocin-4(1H)-one]",3 (3: 120-140% of control)
9,"COc1ccc2c(c1)CN(C1CC1)C(=O)CCN2CC(O)c1ccc(F)cc1 (stereo not shown) [Compound 6, 5-cyclopropyl-1-(2-(4-fluorophenyl)-2-hydroxyethyl)-8-methoxy-2,3,5,6-tetrahydrobenzo[b][1,5]diazocin-4(1H)-one]",3 (3: 120-140% of control)
10,"O=C1CCNc2ccc(Br)cc2CN1C1CC1 [Compound 7, 8-bromo-5-cyclopropyl-2,3,5,6-tetrahydrobenzo[b][1,5]diazocin-4(1H)-one]",1 (1: 90-110% of control)
11,"O=C1CCNc2ccc(F)cc2CN1C1CC1 [Compound 8, 5-cyclopropyl-8-fluoro-2,3,5,6-tetrahydrobenzo[b][1,5]diazocin-4(1H)-one]",3 (3: 120-140% of control)
12,"O=C1CCNc2ncccc2CN1C1CC1 [Compound 9, 5-cyclopropyl-2,3,5,6-tetrahydropyrido[2,3-b][1,5]diazocin-4(1H)-one]",2 (2: 110-120% of control)
13,"O=C1CCNc2ccc(F)cc2CN1 [Compound 10, 8-fluoro-2,3,5,6-tetrahydrobenzo[b][1,5]diazocin-4(1H)-one]",4 (4: 140-170% of control)
14,"COc1ccc2c(c1)CN(C1CC1)C(=O)CCN2CC(=O)c1ccccc1 [Compound 11, 5-cyclopropyl-8-methoxy-1-(2-oxo-2-phenylethyl)-2,3,5,6-tetrahydrobenzo[b][1,5]diazocin-4(1H)-one]",1 (1: 90-110% of control)
15,"COc1ccc2c(c1)CN(C1CC1)C(=O)CCN2CC(=O)c1cc(OC)ccc1OC [Compound 12, 5-cyclopropyl-1-(2-(2,5-dimethoxyphenyl)-2-oxoethyl)-8-methoxy-2,3,5,6-tetrahydrobenzo[b][1,5]diazocin-4(1H)-one]",1 (1: 90-110% of control)
16,"COc1ccc2c(c1)CN(C1CC1)C(=O)CCN2CC(=O)c1ccccc1OC [Compound 13, 5-cyclopropyl-8-methoxy-1-(2-(2-methoxyphenyl)-2-oxoethyl)-2,3,5,6-tetrahydrobenzo[b][1,5]diazocin-4(1H)-one]",1 (1: 90-110% of control)

row,Molecule,Insulin secretion (Min6 cell) Range 1 to 5
1,"COc1ccc2c(c1)CN(C1CC1)C(=O)CCN2CC(=O)c1ccc(Cl)cc1 [Compound 14, 1-(2-(4-chlorophenyl)-2-oxoethyl)-5-cyclopropyl-8-methoxy-2,3,5,6-tetrahydrobenzo[b][1,5]diazocin-4(1H)-one]",3 (3: 120-140% of control)
2,"COc1ccc2c(c1)CN(C1CC1)C(=O)CCN2CC(=O)c1ccc2c(c1)OCCO2 [Compound 15, 5-cyclopropyl-1-(2-(2,3-dihydrobenzo[b][1,4]dioxin-6-yl)-2-oxoethyl)-8-methoxy-2,3,5,6-tetrahydrobenzo[b][1,5]diazocin-4(1H)-one]",3 (3: 120-140% of control)
3,"COc1ccc2c(c1)CN(C1CC1)C(=O)CCN2CC(=O)c1ccc(N2CCCC2)cc1 [Compound 16, 5-cyclopropyl-8-methoxy-1-(2-oxo-2-(4-(pyrrolidin-1-yl)phenyl)ethyl)-2,3,5,6-tetrahydrobenzo[b][1,5]diazocin-4(1H)-one]",4 (4: 140-170% of control)
4,"COc1ccc2c(c1)CN(C1CC1)C(=O)CCN2CC(O)c1ccccc1 (stereo not shown) [Compound 17, 5-cyclopropyl-1-(2-hydroxy-2-phenylethyl)-8-methoxy-2,3,5,6-tetrahydrobenzo[b][1,5]diazocin-4(1H)-one]",2 (2: 110-120% of control)
5,"COc1ccc2c(c1)CN(C1CC1)C(=O)CCN2C[C@@H](O)COCc1ccccc1 [Compound 18, (R)-1-(3-(benzyloxy)-2-hydroxypropyl)-5-cyclopropyl-8-methoxy-2,3,5,6-tetrahydrobenzo[b][1,5]diazocin-4(1H)-one]",2 (2: 110-120% of control)
6,"O=C1CCN(C[C@@H](O)COCc2ccccc2)c2ccc(F)cc2CN1C1CC1 [Compound 19, (R)-1-(3-(benzyloxy)-2-hydroxypropyl)-5-cyclopropyl-8-fluoro-2,3,5,6-tetrahydrobenzo[b][1,5]diazocin-4(1H)-one]",1 (1: 90-110% of control)
7,"COc1cccc(C(=O)CN2CCC(=O)N(C3CC3)Cc3cc(OC)ccc32)c1 [Compound 20, 5-cyclopropyl-8-methoxy-1-(2-(3-methoxyphenyl)-2-oxoethyl)-2,3,5,6-tetrahydrobenzo[b][1,5]diazocin-4(1H)-one]",1 (1: 90-110% of control)
8,"COc1ccc(C(=O)CN2CCC(=O)N(C3CC3)Cc3cc(OC)ccc32)cc1 [Compound 21, 5-cyclopropyl-8-methoxy-1-(2-(4-methoxyphenyl)-2-oxoethyl)-2,3,5,6-tetrahydrobenzo[b][1,5]diazocin-4(1H)-one]",2 (2: 110-120% of control)
9,"COc1ccc2c(c1)CN(C1CC1)C(=O)CCN2CC(=O)c1cccc(F)c1 [Compound 22, 5-cyclopropyl-1-(2-(3-fluorophenyl)-2-oxoethyl)-8-methoxy-2,3,5,6-tetrahydrobenzo[b][1,5]diazocin-4(1H)-one]",2 (2: 110-120% of control)
10,"COc1ccc2c(c1)CN(C1CC1)C(=O)CCN2CC(=O)c1ccc(OC(F)(F)F)cc1 [Compound 23, 5-cyclopropyl-8-methoxy-1-(2-oxo-2-(4-(trifluoromethoxy)phenyl)ethyl)-2,3,5,6-tetrahydrobenzo[b][1,5]diazocin-4(1H)-one]",1 (1: 90-110% of control)
11,"COc1ccc2c(c1)CN(C1CC1)C(=O)CCN2CC(=O)c1ccc(F)c(F)c1 [Compound 24, 5-cyclopropyl-1-(2-(3,4-difluorophenyl)-2-oxoethyl)-8-methoxy-2,3,5,6-tetrahydrobenzo[b][1,5]diazocin-4(1H)-one]",2 (2: 110-120% of control)
12,"COc1ccc2c(c1)CN(C1CC1)C(=O)CCN2CC(O)c1cc(OC)ccc1OC (stereo not shown) [Compound 25, 5-cyclopropyl-1-(2-(2,5-dimethoxyphenyl)-2-hydroxyethyl)-8-methoxy-2,3,5,6-tetrahydrobenzo[b][1,5]diazocin-4(1H)-one]",2 (2: 110-120% of control)
13,"COc1ccc2c(c1)CN(C1CC1)C(=O)CCN2CC(O)c1ccccc1OC (stereo not shown) [Compound 26, 5-cyclopropyl-1-(2-hydroxy-2-(2-methoxyphenyl)ethyl)-8-methoxy-2,3,5,6-tetrahydrobenzo[b][1,5]diazocin-4(1H)-one]",2 (2: 110-120% of control)
14,"COc1ccc2c(c1)CN(C1CC1)C(=O)CCN2CC(O)c1ccc(Cl)cc1 (stereo not shown) [Compound 27, 1-(2-(4-chlorophenyl)-2-hydroxyethyl)-5-cyclopropyl-8-methoxy-2,3,5,6-tetrahydrobenzo[b][1,5]diazocin-4(1H)-one]",4 (4: 140-170% of control)
15,"COc1ccc2c(c1)CN(C1CC1)C(=O)CCN2CC(O)c1ccc(N2CCCC2)cc1 (stereo not shown) [Compound 28, 5-cyclopropyl-1-(2-hydroxy-2-(4-(pyrrolidin-1-yl)phenyl)ethyl)-8-methoxy-2,3,5,6-tetrahydrobenzo[b][1,5]diazocin-4(1H)-one]",3 (3: 120-140% of control)
